Patent US20230293611A1, “NATURAL PRODUCT EXTRACTS AND METHODS OF USE THEREOF” (THE ADORED BEAST APOTHECARY LTD., priority 2020, published 2023)

Assays:
[1] = test system: MDA-MB-231 cells; experiment: MTS assay (Example 1); type: cell-based; settings: Homo sapiens, positive control 50 μM, 24 h, mean±SEM, n=3, read-out: MDA-MB-231 cell viability
Procedure: (§1) • (a) Solvent extraction: Four different solvents were used, namely, methanol, hexane:ethyl acetate (39:1), ethyl acetate, and water. Briefly, 2 g of the test material (MH/GL) were dissolved in 80 ml of appropriate solvents (methanol/hexane:ethyl acetate/ethyl acetate), sonicated twice for 20 min at room temperature (RT), and centrifuged at 3000 rpm for 10 min. The supernatant was collected and evaporated using a rotary evaporation system at 65° C. The concentrated extract was subjected to nitrogen evaporation to remove all the solvent, then dissolved in DMSO to a final concentration of 60 mg/ml. For water extraction, 2 g of the test material was dissolved in 80 ml water, sonicated twice for 20 min at RT, kept at RT for three days, vortexed, and centrifuged at 3000 rpm for 10 min. The supernatant was then freeze-dried into powder. The powder was dissolved in DMSO to a final concentration of 60 mg/ml. • (b) MTS assay: The potential inhibitory effects of MH and GL extracts on HepG2 and MDA-MB-231 cells were measured using MTS assay. Briefly, 6000 cells were seeded and treated with different concentrations (6.25, 12.5, 25, 50, 100, 150, and 300 μg/ml) of extracts for 24 h. Then, MTS/PMS reagent was added and absorbance was measured at 490 nm using a plate reader. Sorafenib (20 μM) and doxorubicin (50 μM) were used as positive controls for HepG2 and MDA-MB-231 cells, respectively. […]

[2] = test system: HepG2 cells; experiment: MTS assay (Example 1); type: cell-based; settings: Homo sapiens, positive control 20 μM, 24 h, mean±SEM, n=3, read-out: HepG2 cell viability
Procedure: as §1

Row | SMILES | viability at 50 µM [1] [%] | viability at 20 µM [2] [%]
1 | COc1cccc2c1C(=O)c1c(O)c3c(c(O)c1C2=O)C[C@@](O)(C(=O)CO)C[C@@H]3O[C@H]1C[C@H](N)[C@H](O)[C@H](C)O1 [doxorubicin] | 24.4 ± 5.1 | –
2 | CNC(=O)c1cc(Oc2ccc(NC(=O)Nc3ccc(Cl)c(C(F)(F)F)c3)cc2)ccn1 [sorafenib] | – | 26 ± 3.7
